{
  "source": "paper PMC3914206",
  "data": [
    {"target": "T1, panel of 442 kinases (Homo sapiens, UniProt P54762)", "T1 construct": "purchased KINOMEscan", "T1 sequence (P54762 18-984)": "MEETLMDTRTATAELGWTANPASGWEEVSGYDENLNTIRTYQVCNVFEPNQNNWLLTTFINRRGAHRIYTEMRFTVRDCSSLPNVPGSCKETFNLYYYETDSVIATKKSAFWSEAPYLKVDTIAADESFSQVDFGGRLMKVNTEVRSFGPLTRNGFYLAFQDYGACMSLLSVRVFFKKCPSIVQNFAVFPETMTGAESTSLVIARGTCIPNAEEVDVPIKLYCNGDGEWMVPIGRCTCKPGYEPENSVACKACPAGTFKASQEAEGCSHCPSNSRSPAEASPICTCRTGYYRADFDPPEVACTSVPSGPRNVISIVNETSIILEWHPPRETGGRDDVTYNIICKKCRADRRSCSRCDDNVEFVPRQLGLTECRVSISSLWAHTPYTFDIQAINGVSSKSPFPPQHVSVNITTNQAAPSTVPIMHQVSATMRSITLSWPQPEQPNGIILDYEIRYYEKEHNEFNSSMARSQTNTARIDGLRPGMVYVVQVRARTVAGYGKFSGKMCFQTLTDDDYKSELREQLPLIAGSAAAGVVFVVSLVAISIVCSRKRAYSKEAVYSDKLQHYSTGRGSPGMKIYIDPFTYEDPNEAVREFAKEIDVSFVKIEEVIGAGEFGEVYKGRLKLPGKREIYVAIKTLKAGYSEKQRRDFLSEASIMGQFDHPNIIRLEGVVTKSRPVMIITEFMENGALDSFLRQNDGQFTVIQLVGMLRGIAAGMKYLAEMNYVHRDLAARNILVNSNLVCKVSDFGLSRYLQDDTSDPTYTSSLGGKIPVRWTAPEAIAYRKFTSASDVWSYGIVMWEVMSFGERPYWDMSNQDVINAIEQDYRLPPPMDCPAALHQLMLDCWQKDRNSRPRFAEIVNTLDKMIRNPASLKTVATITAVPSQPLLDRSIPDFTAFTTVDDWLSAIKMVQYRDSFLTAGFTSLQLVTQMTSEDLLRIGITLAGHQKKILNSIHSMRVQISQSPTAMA", "type": "binding", "details": "Compound Concentration 10 µM", "description": "We assessed the selectivity of members of this scaffold using the KINOMEscan methodology across a near comprehensive panel of 442 kinases [[18,27]].", "values": [
      {"smiles": "COc1cc(C(=O)N2CCC(N3CCN(C)CC3)CC2)ccc1Nc1ncc2c(n1)N(C1CCCC1)c1ccccc1C(=O)N2C", "note": "[Compound 25, 11-cyclopentyl-2-((2-methoxy-4-(4-(4-methylpiperazin-1-yl)piperidine-1-carbonyl)phenyl)amino)-5-methyl-5H-benzo[e]pyrimido[5,4-b][1,4]diazepin-6(11H)-one]", "KINOMEscan: EPHB1": 95},
      {"smiles": "CCOc1cc(C(=O)N2CCC(N3CCN(C)CC3)CC2)ccc1Nc1ncc2c(n1)N(C1CCCC1)c1ccccc1C(=O)N2C", "note": "[Compound 26]", "KINOMEscan: EPHB1": 95},
      {"smiles": "COc1cc(C(=O)N2CCC(N3CCN(C)CC3)CC2)ccc1Nc1ncc2c(n1)N(C)c1ccccc1C(=O)N2C", "note": "[15 (LRRK2-IN-1)]", "KINOMEscan: EPHB1": 98}
    ]}
  ]
}
